Test results taken from patent US11446342B2, “Composite probiotics and use thereof” (INFINITUS (CHINA) COMPANY LTD., priority 2019, dated 2022).

Tests used:
[1] = test system: mice having high-fat diet induced metabolic syndrome; experiment: Liver glutathione (GSH) in high-fat diet-induced metabolic syndrome; format: in vivo, C57BL/6J mice; conditions: intragastric daily, high-fat feed; probiotics total 1.0×10^9 CFU/mL
Description: (§1) The experimental animals were 48 5-week old SPF grade C57BL/6 male mice, which were purchased from Shanghai Slack Laboratory Animal Center. The high-fat feed was purchased from Nantong Trophic Animal Feed High-tech Co., Ltd. The model group was fed with TP23300 high-fat feed, and the normal control group was fed with TP23302 control feed. After the mice were adaptively feed for 7 days, the experiment started. The animals were given free access to food and water, the temperature was 22±2° C., the humidity was 55±5%, and the illumination was alternately 12 h bright and dark.
(§2) Each group contains 6 mice. The feeding environmental temperature was 20-26° C., the humidity was 40%-70% and the padding was replaced twice a week. In the Bifidobacterium adolescentis CCFM8630, Lactobacillus reuteri CCFM8631, Lactobacillus rhamnosus CCFM1044 and Lactobacillus casei CCFM711 compounding group, the ratio of viable count of Bifidobacterium adolescentis CCFM8630, Lactobacillus reuteri CCFM8631, Lactobacillus rhamnosus CCFM1044 and Lactobacillus casei CCFM711 was 1:1:1:1. Each mouse was administered intragastrically each day with probiotics with a concentration of 1.0×10^9 CFU/mL, which was resuspended in 3% sucrose solution, and the volume by intragastric administration was 0.2 mL, i.e., the total amount of probiotics administered intragastrically to each mouse was 2×10^8 CFU each day. […]

[2] = test system: mice having high-fat diet induced metabolic syndrome; experiment: Liver superoxide dismutase (SOD) in high-fat diet-induced metabolic syndrome; format: in vivo, C57BL/6J mice; conditions: intragastric daily, high-fat feed; probiotics total 1.0×10^9 CFU/mL
Description: as §1, §2

CN(CCOc1ccc(CC2SC(=O)NC2=O)cc1)c1ccccn1 (centres unmarked) [RH, rosiglitazone]
extent of increase of liver GSH level compared with the HF group [1]: 6.88 μmoL/g prot
extent of increase of liver SOD activity compared with the HF group [2]: 70.07 U/mg prot
